Source: patent US10280170B2, “Substituted 4,5,6,7-tetrahydro-pyrazolo[1,5-a]pyrazine derivatives and 5,6,7,8-tetrahydro-4H-pyrazolo[1,5-a][1,4]diazepine derivatives as Ros1 inhibitors” (Janssen Pharmaceutica NV, priority 2014, dated 2019)
Like-named read-outs stand apart in the source and are kept apart here.

Key:
[1] = biological target: T1, Ros1 enzyme (Homo sapiens, UniProt P08922); assay: Ros1 enzymatic assay; format: biochemical; settings: Ros1 enzymatic assay; read-out: ROS1 pIC50 (converted)
T1 construct: 0.5 μg/ml Ros1 enzyme
Procedure, shortened: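 A radiometric assay mixed enzyme mix (0.5 μg/ml human Ros1) with substrate mix (6 μg/ml biotinylated IRS-Tide, 20 μM ATP plus [33P]ATP), both in 50 mM Tris-HCl pH 7.5, 10 mM MgCl2, 1 mM EGTA, 0.01% Tween-20. The reaction ran 120 min at room temperature, was stopped with EDTA plus streptavidin imaging beads, and was read by LEADseeker imaging.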

[2] = biological target: T2, Ba/F3 cells containing Ros1 wild-type protein (Homo sapiens, UniProt P08922, cells depend on it, form not given); assay: Ba/F3-Ros1 cell proliferation assay, wild-type Ros1; format: cell-based, murine; settings: without IL-3
T2 construct: The background only speaks of 'a number of different unrelated proteins' and names SLC34A2-ROS1 for HCC78 cells
Procedure, shortened: (§1)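 Ba/F3 cells expressing wild-type, L2026M or G2032R Ros1 (20000 per well) were incubated with DMSO-solubilized compounds in phenol red-free RPMI-1640 with 10% FBS and 2 mM L-glutamine at 37 °C, 5% CO2 for 24 hours. Viability was then read by Alamar Blue fluorescence (ex 540/em 590 nm) after 4 h.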

[3] = system: Ba/F3 cells containing Ros1 wild-type protein + IL-3; assay: Ba/F3-Ros1 cell proliferation counter-screen, wild-type protein in the presence of 10 ng/ml murine IL-3; format: cell-based; settings: Mus musculus, BaF3, 24 h, read-out: BaF3-ROS1 + IL3 pIC50 (converted)
Procedure, shortened: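 Ba/F3 cells expressing wild-type Ros1, 20000 per well in RPMI-1640 with 10% FBS, cultured with compounds for 24 h at 37 °C with 10 ng/ml murine IL-3. Alamar Blue (resazurin) then added for 4 h. Fluorescence read at ex 540/em 590 nm.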

[4] = system: HCC78 non-small cell lung cancer cells; assay: HCC78 cell proliferation assay; format: cell-based; settings: for EC50: Homo sapiens, HCC78, 96 h, read-out: HCC-78 PROL pEC50 (converted)
Procedure, shortened: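 HCC78 NSCLC cells (~1000/well) in RPMI-1640 with 10% FBS were treated 24 h after seeding and exposed to compound for 4 days at 37 °C. Viability was read by MTT, with absorbance at 538 nm after DMSO/glycine solubilization.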

[5] = biological target: Ba/F3 cells containing Ros1 with a mutation at the gatekeeper residue (L2026M) (Homo sapiens, UniProt P08922, L2026M, cells depend on it, form not given); assay: Ba/F3-Ros1 cell proliferation assay, L2026M gatekeeper mutant; format: cell-based, murine; settings: without IL-3
Procedure, shortened: as §1

[6] = counter-screen, wild-type, 10 ng/ml murine IL-3

T1 sequence (P08922 28-2347): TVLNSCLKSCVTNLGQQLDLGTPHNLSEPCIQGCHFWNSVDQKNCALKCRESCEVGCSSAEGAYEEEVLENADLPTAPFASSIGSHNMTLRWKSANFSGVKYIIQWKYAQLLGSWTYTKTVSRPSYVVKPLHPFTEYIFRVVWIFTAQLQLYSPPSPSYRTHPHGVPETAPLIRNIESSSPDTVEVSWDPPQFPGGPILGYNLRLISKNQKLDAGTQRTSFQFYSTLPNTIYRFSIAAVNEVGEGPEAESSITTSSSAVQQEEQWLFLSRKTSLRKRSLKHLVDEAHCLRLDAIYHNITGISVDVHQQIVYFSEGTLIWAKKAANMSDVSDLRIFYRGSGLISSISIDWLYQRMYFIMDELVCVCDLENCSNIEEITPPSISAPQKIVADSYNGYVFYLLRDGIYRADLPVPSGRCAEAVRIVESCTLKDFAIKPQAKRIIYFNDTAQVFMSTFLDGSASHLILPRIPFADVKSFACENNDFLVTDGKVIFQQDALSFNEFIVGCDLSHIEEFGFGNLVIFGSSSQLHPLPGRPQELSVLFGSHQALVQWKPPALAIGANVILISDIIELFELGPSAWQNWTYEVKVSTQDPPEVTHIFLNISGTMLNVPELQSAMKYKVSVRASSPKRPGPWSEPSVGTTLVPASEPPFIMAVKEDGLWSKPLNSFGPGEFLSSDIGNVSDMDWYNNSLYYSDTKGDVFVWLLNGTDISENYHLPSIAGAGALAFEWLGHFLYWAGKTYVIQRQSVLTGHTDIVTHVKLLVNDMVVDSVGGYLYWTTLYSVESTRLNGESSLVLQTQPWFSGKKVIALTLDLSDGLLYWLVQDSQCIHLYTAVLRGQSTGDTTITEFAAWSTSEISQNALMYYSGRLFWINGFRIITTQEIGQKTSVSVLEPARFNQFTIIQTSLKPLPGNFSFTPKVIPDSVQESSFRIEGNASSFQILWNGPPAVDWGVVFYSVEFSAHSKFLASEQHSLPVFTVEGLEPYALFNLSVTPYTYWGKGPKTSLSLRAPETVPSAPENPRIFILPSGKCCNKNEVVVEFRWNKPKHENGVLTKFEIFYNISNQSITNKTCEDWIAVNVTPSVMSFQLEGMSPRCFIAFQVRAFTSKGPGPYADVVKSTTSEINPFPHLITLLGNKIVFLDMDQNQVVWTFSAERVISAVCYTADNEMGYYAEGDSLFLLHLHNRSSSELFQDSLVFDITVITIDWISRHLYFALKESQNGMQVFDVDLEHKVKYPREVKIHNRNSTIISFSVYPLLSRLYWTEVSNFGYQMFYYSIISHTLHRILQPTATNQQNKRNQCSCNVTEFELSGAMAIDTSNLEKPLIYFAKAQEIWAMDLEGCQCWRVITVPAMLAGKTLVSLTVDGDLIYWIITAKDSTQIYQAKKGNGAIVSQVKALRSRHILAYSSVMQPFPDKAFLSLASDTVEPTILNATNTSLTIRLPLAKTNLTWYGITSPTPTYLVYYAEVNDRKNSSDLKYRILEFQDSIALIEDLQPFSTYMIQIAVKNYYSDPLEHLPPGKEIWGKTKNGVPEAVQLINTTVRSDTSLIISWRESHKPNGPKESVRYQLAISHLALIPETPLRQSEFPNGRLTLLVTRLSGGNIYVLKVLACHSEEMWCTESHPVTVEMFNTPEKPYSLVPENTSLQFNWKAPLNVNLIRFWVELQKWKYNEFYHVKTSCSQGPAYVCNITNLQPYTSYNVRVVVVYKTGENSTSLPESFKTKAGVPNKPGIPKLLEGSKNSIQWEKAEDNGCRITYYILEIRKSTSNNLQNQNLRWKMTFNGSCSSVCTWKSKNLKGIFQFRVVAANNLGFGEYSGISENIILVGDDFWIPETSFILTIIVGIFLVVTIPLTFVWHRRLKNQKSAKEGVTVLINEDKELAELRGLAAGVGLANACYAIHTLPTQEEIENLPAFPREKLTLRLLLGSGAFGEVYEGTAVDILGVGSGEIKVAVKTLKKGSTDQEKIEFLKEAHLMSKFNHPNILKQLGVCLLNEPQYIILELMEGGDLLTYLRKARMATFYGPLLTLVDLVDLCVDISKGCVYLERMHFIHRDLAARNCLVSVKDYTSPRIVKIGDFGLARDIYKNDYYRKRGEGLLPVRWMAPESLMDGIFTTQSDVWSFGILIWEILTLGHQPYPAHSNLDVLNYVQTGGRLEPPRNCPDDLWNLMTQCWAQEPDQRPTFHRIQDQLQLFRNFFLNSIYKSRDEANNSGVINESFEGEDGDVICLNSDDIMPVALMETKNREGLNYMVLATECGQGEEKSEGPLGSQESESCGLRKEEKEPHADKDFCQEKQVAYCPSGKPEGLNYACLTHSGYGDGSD
Sequence of Ba/F3 cells containing Ros1 with a mutation at the gatekeeper residue (L2026M) (P08922 whole entry L2026M, form open): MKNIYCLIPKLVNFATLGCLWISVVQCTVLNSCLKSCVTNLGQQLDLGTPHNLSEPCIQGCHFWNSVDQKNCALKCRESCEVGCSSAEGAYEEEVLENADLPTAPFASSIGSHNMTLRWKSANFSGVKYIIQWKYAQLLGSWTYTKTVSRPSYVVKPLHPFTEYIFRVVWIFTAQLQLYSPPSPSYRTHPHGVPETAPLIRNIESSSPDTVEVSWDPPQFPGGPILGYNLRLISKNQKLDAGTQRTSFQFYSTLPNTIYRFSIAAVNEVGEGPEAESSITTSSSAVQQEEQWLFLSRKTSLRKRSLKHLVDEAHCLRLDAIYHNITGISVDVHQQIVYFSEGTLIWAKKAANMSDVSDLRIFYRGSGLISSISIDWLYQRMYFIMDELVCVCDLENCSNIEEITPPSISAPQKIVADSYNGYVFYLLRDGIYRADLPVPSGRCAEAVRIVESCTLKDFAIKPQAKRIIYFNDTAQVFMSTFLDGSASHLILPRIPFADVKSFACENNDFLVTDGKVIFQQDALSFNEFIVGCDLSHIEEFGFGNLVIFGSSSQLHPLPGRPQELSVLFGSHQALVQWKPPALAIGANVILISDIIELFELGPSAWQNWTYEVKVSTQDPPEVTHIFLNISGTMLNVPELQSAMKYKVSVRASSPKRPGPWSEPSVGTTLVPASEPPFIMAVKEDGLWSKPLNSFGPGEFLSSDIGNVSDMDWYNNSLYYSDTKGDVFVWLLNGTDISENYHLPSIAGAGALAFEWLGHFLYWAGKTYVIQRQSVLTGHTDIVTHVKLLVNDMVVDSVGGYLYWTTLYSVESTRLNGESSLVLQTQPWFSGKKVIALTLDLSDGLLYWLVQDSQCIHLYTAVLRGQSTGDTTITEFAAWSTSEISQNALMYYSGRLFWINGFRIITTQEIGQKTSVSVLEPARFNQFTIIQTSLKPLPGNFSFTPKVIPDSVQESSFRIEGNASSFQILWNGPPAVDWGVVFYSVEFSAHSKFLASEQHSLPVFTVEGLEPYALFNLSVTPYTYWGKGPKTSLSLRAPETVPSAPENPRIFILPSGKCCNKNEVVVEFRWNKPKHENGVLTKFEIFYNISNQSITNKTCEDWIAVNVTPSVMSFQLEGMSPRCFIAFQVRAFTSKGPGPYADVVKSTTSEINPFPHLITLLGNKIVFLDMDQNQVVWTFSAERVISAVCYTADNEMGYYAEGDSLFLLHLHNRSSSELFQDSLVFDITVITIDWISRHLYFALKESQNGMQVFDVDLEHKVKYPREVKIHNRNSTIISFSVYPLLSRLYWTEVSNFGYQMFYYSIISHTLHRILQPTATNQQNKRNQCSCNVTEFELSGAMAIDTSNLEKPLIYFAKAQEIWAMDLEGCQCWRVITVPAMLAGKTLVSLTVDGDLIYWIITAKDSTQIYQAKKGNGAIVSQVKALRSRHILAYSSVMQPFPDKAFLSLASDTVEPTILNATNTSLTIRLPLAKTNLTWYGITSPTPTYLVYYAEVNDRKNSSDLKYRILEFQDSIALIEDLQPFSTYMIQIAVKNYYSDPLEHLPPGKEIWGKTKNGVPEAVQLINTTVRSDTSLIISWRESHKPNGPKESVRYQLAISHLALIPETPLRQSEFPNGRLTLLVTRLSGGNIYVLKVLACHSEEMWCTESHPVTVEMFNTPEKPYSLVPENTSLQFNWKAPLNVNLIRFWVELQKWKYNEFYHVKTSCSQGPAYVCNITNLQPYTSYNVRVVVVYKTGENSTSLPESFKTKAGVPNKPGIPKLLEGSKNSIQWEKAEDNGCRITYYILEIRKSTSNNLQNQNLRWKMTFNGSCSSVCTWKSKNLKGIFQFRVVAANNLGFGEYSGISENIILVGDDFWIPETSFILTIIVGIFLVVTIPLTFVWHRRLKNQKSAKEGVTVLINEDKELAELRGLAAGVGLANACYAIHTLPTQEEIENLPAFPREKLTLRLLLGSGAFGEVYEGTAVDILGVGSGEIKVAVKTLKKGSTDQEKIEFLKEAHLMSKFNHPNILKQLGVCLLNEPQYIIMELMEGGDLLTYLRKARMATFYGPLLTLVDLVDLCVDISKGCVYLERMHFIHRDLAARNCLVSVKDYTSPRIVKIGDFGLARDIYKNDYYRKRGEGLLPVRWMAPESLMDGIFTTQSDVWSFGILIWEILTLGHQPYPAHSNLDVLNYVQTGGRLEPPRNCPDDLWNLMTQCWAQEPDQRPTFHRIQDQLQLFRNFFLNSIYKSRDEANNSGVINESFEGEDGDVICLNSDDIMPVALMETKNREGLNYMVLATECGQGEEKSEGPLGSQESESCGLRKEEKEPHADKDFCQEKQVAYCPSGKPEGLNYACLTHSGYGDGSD
T2 sequence (P08922 whole entry, stated change not applied): as the sequence (P08922 whole entry L2026M, form open) above, with M2026L counted along it

Structure (SMILES)	IC50 [1]	BaF3-ROS1-IL3 pIC50 [2]	melting point	CC50 [3, 6]	EC50 ([4]; HCC78 cells, 4 days, MTT)	Ba/F3 Ros1 L2026M (-IL-3) pIC50 [5]	CC50 [3]	EC50 [4]	HCC-78 PROL pEC50 ([4]; HCC78 cells, 4 days, MTT)
CC(O)CN1CCn2nc(-c3ccncc3)c(-c3ccc(OCc4ccc(C(C)C)cc4)cc3)c2C1 (stereo not drawn) [Compound 191]	158 nM	6.9	148 °C	> 10000 nM	501 nM	7.0			
CC(C)c1ccc(COc2ccc(-c3c(-c4ccncc4)nn4c3C(=O)NCC4)cc2)cc1C#N [Compound 85]	39.8 nM	7.4	240 °C	> 10000 nM	316 nM	7.1			
CC(C)c1ccc(COc2ccc(-c3c(-c4ccncc4)nn4c3C(=O)NC(CN(C)CCO)C4)cc2)cc1 (stereo not drawn) [Compound 195]	126 nM	6.7	193 °C	> 10000 nM	794 nM	7.0			
CC(C)c1ccc(COc2ccc(-c3c(-c4ccncc4)nn4c3C(=O)NCC4)cc2)cc1CCO [Compound 11]	10 nM	7.7	195 °C			7.8	> 10000 nM	31.6 nM	
CC(O)CN1CCn2nc(-c3ccncc3)c(-c3ccc(OCc4ccc(C5CC5)cc4)cc3)c2C1=O (stereo not drawn) [Compound 134]	79.4 nM	7.3	196 °C	> 10000 nM	200 nM	7.0			
COCC(C)(C)c1ccc(COc2ccc(-c3c(-c4ccncc4)nn4c3C(=O)NCC4)cc2)cc1 [Compound 126]	200 nM	6.9	212 °C			6.6	> 10000 nM	1260 nM	
CC(C)c1ccc(COc2ccc(-c3c(-c4ccncc4F)nn4c3C(=O)NCC4)c(F)c2)cc1 [Compound 152]	10 nM	8.0	262 °C			8.1	> 10000 nM	63.1 nM	
CC(C)c1ccc(COc2ccc(-c3c(-c4ccncc4)nn4c3C(=O)N(CC(O)CO)CC4)c(F)c2)cc1 (stereo not drawn) [Compound 23]	12.6 nM	7.7	192 °C	> 10000 nM		7.2			7.2
CC(C)c1ccc(COc2ccc(-c3c(-c4ccncc4)nn4c3C(=O)NCC4)c(Cl)c2)cc1 [Compound 24]	7.94 nM	7.8	267 °C			8.2	> 10000 nM	1.58 nM	
CC(C)c1ccc(C2CNc3cc(-c4c(-c5ccncc5)nn5c4C(=O)NCC5)ccc3O2)cc1 (racemic) [Compound 226]	631 nM	7.1	252 °C	> 10000 nM	501 nM	6.8			
CC(C)c1ccc(C(CN)Oc2ccc(-c3c(-c4ccncc4)nn4c3C(=O)NCC4)cc2)cc1 (stereo not drawn) [Compound 147]	3980 nM	5.4	178 °C			6.7	3980 nM	3980 nM	
CC(C)c1ccc(COc2cnc(-c3c(-c4ccncc4)nn4c3C(=O)NCC4)cn2)cc1 [Compound 76]	251 nM	6.8	225 °C			7.0	> 10000 nM	794 nM	
CC(C)c1ccc(COc2ccc(-c3c(-c4ccnc(CO)c4)nn4c3C(=O)NCC4)cc2)cc1 [Compound 233]	794 nM	6.5	232 °C			5.9	> 10000 nM	2510 nM	
CC(C)c1ccc(COc2ccc(-c3c(-c4ccncc4)nn4c3C(=O)NCC4)c(F)n2)cc1 [Compound 74]	15.8 nM	8.1	275 °C			7.5	> 10000 nM	12.6 nM	
